In publication doi:10.1101/2023.10.24.563163v2, “Targeting cancer with small molecule pan-KRAS degraders” (biorxiv, 2024) one finds DC50 and IC50 data, which are given here for three compounds.

Read-outs that look alike come from different tables or passages of the source.

Assay [1] deals with T1, KRAS^WT (Homo sapiens, UniProt P01116).
T1 construct: endogenous wild type
Also on record: KRAS degradation by capillary electrophoresis immunodetection. As to conditions: read-out: DC50 24 h A375.

Assay [2] deals with T1, KRAS^WT. Also noted: KRAS degradation by capillary electrophoresis immunodetection. As to conditions: read-out: DC50 24 h HEK293. As to the method:
Protein Detection by Capillary Electrophoresis Cells (50 000) were seeded the day before treatment into 96-well clear-flat bottom plates and incubated overnight (37 °C, humidified tissue culture incubator, 5% CO2). Compounds were added from DMSO stock solution using a digital dispenser and cells are incubated at 37 °C as specified (24 hours for KRAS degradation, 6 hours for determination of pERK levels). At the end of the incubation, medium was removed, cells washed with ice cold PBS, PBS removed and 50 µL lysis buffer (Meso Scale Discovery #R60TX-2) supplemented with 1:100 protease inhibitor solution, 1:100 phosphatase inhibitor I, 1:100 phosphatase inhibitor II (Meso Scale Discovery #R70AA-1), 0.5 µL/mL Benzonase (Novagen #70664-3) and 10 mM dithiothreitol added to each well. Plates with lysis buffer were immediately transferred to -80 °C freezer for at least 2 hours and then thawed on ice. Lysates were transferred to a 96 well V-bottom plate and insoluble debris was pelleted by centrifugation for 20 min. at 4 000 rpm. 40 µL of the supernatant were transferred to a fresh Eppendorf PCR plate. Analysis of protein levels was conducted using the Wes System, ProteinSimple (https://www.bio-techne.com/) as specified by the manufacturer. […]

Assay [3] deals with GP2d. The experiment in a line: cells. Also noted: DUSP6 modulation. As to conditions: GP2d, 6 h; read-out: IC50 DUSP6. From the text: (§1) Next, we set out to test the ability of a single pan-KRAS degrading molecule, compound 4, to selectively suppress oncogenic signaling and proliferation in cancer cell lines driven by diverse KRAS mutants. To this end, we first confirmed degradation of KRAS by compound 4 in KRAS-dependent (GP2d, SW620 and NCI-H358 expressing KRAS^G12D, - G12V or -G12C, respectively) as well as in KRAS independent (A-375, HEK293) cell lines (Fig. 3A, fig. S4A). […] Both inhibition and degradation repressed the established markers of MAPK signaling pERK (fig. S4B-D) and DUSP6 (Fig. 3B, fig. S4E) in KRAS dependent cell lines. […] Neither degradation nor inhibition had appreciable antiproliferative effects in the KRAS independent cell lines A-375 and HEK293 (Fig. 3C, fig. S4F).

Assay [4] concerns SW620. Kind of assay: cells. As to conditions: Homo sapiens, SW-620, 6 h; read-out: IC50 DUSP6. Also noted: DUSP6 modulation.
From the text: as §1

The test system of the next assay is NCI-H358. The experiment in a line: cells. Also on record: DUSP6 modulation. Particulars: Homo sapiens, NCI-H358, 6 h; read-out: IC50 DUSP6.
From the text: as §1

The subject of assay [5] is GP2d. Kind of assay: cells. Also on record: Inhibition of cell proliferation, 5 days. As to conditions: 120 h, read-out: IC50 Proliferation GP2d.
From the text: as §1, with “S4F). […] Pan-KRAS degradation impacts MAPK signaling and cancer cell proliferation.” for “S4F).”

Assay [6] deals with SW620. The experiment in a line: cells. Also noted: Inhibition of cell proliferation, 5 days. Particulars: Homo sapiens, SW-620, 120 h; read-out: IC50 Proliferation SW620.
From the text: as §1, with “S4F). […] Pan-KRAS degradation impacts MAPK signaling and cancer cell proliferation.” for “S4F).”

T1 sequence (P01116 whole entry): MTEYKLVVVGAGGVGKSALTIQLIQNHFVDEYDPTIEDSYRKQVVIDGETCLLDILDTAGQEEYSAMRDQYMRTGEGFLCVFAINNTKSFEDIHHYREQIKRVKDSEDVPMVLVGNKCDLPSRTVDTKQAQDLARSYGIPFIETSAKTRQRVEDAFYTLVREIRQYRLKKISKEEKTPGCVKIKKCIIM

With `Cc1ncsc1-c1ccc(CNC(=O)[C@@H]2C[C@@H](O)CN2C(=O)[C@@H](NC(=O)CCCCCN2CCCN(c3nccc(-c4noc([C@@]5(C)CCCc6sc(N)c(C#N)c65)n4)n3)[C@@H](C)C2)C(C)(C)C)cc1` [compound 3], the half-maximal degradation concentration (DC50) at KRAS^WT [1] was 455 nM; at KRAS^WT [2] it was above 1000 nM. The IC50 with GP2d [3] worked out at 129 nM; with SW620 [4], 205 nM; in the assay on NCI-H358, 248 nM; in the assay on GP2d [5], 374 nM; in the assay on SW620 [6], 232 nM.

In the case of `Cc1ncsc1-c1ccc(CNC(=O)[C@@H]2C[C@@H](O)CN2C(=O)[C@@H](c2cc(OCCCCN3CCCN(c4nccc(-c5noc([C@@]6(C)CCCc7sc(N)c(C#N)c76)n5)n4)[C@@H](C)C3)no2)C(C)C)cc1` [compound 4], the results for the DC50 on KRAS^WT [1] and on KRAS^WT [2] were 33.4 nM and 86.7 nM, respectively. Further, the IC50 amounted to 3.3 nM with GP2d [3]; 6.2 nM in the assay on SW620 [4]; 11.4 nM with NCI-H358; 8.3 nM in the assay with GP2d [5]; 11 nM in the assay on SW620 [6].

Regarding `Cc1ncsc1-c1ccc(CNC(=O)C2CC(O)CN2C(=O)C(c2cc(OCCCCN3CCCN(c4nccc(-c5noc(C6(C)CCCc7sc(N)c(C#N)c76)n5)n4)C(C)C3)no2)C(C)C)cc1` (stereo not shown) [compound 5], the IC50 was 245 nM in the assay on GP2d [3]; 429 nM in the assay with SW620 [4]; 138 nM in the assay with NCI-H358; 1740 nM in the assay on GP2d [5]; 993 nM in the assay with SW620 [6].
